Measured values from patent US20240108734A1, “METHODS FOR TREATING AND AMELIORATING CANCER” (The Regents of the University of California, priority 2021, published 2024).
“Also recorded” adds a separate entry of the source.

Assays:
[1] = system: LSC; test: Serial transplantation of BC CML LSC mouse model (LSC self-renewal); format: in vivo, mice
Method: FIG. 4H. Self-renewal capacity of human progenitor cells was evaluated in serially transplanted mouse models. FACS analysis of percentage of live human CD34^+CD38^+Lin^− progenitor cells following serial engraftment of cells derived from mice treated with vehicle (red), mismatch (blue) or imetelstat (green).
FIG. 4I. Kaplan-Meier survival curves of mice transplanted with CD34^+ cells selected from imetelstat treated mouse BM (green) compared with mismatch controls (blue).

[2] = system: beta-catenin; test: FACS analysis of beta-catenin in normal HSC engrafted mouse model; format: in vivo; conditions: human CD45+ cells and CD34+CD38- stem cells in BM
Method: To assess WNT/beta-catenin activation in response to ADAR1 upregulation, a lentiviral TCF/LEF reporter was utilized in human blast crisis CML cells, K562^26. Lentiviral pCDH backbone, ADAR1^WT, shControl, and shADAR1 K562 stable cell lines were transduced with pGreenFire1-TCF/LEF1 reporter (SBI) lentivirus for 72-hours prior to CellTiter-Glo and One-Glo luciferase assays (Promega). A minimum of 50,000 cells were plated in duplicate, lysed according to the manufacturer's protocol, and measured using preloaded protocols on a Promega GloMax Discover Microplate Reader. One-Glo luciferase readouts were normalized to corresponding CellTiter-Glo values. Activated beta-catenin levels in HSC and HPCs were also quantified using a MACS Quant instrument following staining of cells with Viability Near-IR, Lineage PE-Cy5, CD45 BV510, CD34 BV421, CD38 PE-Cy7, GFP, and beta-catenin AF647 antibodies (Becton Dickinson, Inc). […] Mean fluorescence intensity (MF) of active beta-catenin in human CD45+ cells, HSCs (CD45^+CD34^+CD38^− Lin) and HPCs (CD45^+CD34^+CD38^+Lin^−) derived from engrafted bone marrow and spleen was determined with a Miltenyi Biotec MACS Quant flow cytometer.

[3] = system: MF CD34+ cells engrafted in NSG-SGM3 mice; test: Humanized MF MPN-SPC (pre-LSC) mouse model; format: in vivo
Description: Human CD34^+ cells isolated from MF and BC CML samples (Table S2, illustrated as FIG. 11) were transplanted intravenously into adult NSG-SGM3 (expressing human IL-3, GM-CSF and SCF) mice following 300 cGy of irradiation or intrahepatically into neonatal RAG2^−/− yc^−/− mice, respectively^27,32.
Human CD34^+ cells isolated from MF and BC CML (Table S2) samples were transplanted intravenously into adult NSG-SGM3 (expressing human IL-3, GM-CSF and SCF) mice following
300 cGy of irradiation or intrahepatically into newborn RAG2^−/−[…]c^−/− mice^28,32,34. Post-transplantation (13 to 16 weeks), bone marrow and spleen were collected and analyzed by FACS^32. Mice were treated with vehicle, mismatch or imetelstat at varying doses. Also, MF CD34^+ cells were transduced with pCDH lentivirus control or ADAR1-OE lentivirus with a MOI of 100 for 48 hours, followed by intravenous transplantation into NSG-SGM3 mice to assess the impact of ADAR1 overexpression on MF engraftment.
FIG. 4A. A schema of humanized BC CML LSC and MF SPC mouse models. Human CD34^+ cells sorted from either BC CML or myelofibrosis patient blood or marrow were transplanted into neonatal Rag2^−/−[…]c^−/− mice or intravenously transplanted into adult NSG-S mice. Engrafted BC CML or MF mouse models were randomized into (1) vehicle control, (2) mismatch control, and (3) imetelstat treatment groups (n≥3/group). Bone marrow (BM) and spleen were collected when completing the dosing plan, and the single-cell suspension was analyzed by FACS.
FIG. 4B. Bone marrow from each treatment group was collected for histological examination and FACS analysis. Left: Photomicrogaphs depict reticulin staining, DAPI staining, human CD45^+ expression and merged DAPI and CD45 images in bone marrow collected from no transplant, vehicle, and mismatch controls as well as from imetelstat treated myelofibrosis (MF) mouse models. Right: FACS analysis plots depicting forward scatter (FSC, y-axis) and human CD45 engraftment (x-axis) in no transplant, vehicle, and mismatch controls as well as imetelstat treated MF mouse models.

[4] = Tolerability (change in percent body weight) in xenograft models; format: in vivo; conditions: mice transplanted with CB, BC CML or MF progenitors
Description: FIG. 8A graphically illustrates data showing the change in percent body weight in mice transplanted with cord blood (CB) treated with vehicle (black), mismatch control (blue) or imetelstat (red);
FIG. 8B graphically illustrates data showing the change in percent body weight in mice transplanted with BC CML treated with vehicle (black), mismatch control (blue) or imetelstat (red);
FIG. 8C graphically illustrates data showing the change in percent body weight in mice transplanted with myelofibrosis (MF) progenitors treated with vehicle (black), mismatch control (blue) or imetelstat (red);

[5] = system: beta-catenin; test: qRT-PCR gene expression in BC CML CD34+ cells in stromal co-culture; format: cell-based, human; conditions: imetelstat monotherapy 5 μM for 14 days vs mismatch control
Method: (§1) FIG. 7 illustrates supplementary FIG. 2, where gene expression qRT-PCR analyses of human CD34^+ cells sorted from BC CML patient samples (n=3) and MF patient samples (n=5) that were co-cultured with SL/M2 stromal cells and treated with mismatch control or imetelstat at 5 μM for 14 days.

[6] = system: ADAR1; test: as above; format: cell-based, human; conditions: imetelstat monotherapy 5 μM for 14 days vs mismatch control
Method: as §1

With imetelstat the “LSC engraftment after serial transplantation” value ([1]; compared with mismatch control treatment, p=0.04) was “significantly less”, the “survival rates of serially transplanted mice (Kaplan-Meier)” value ([1]; compared with mismatch controls, p=0.05) was “longer” and the “beta-catenin expression / activity in normal HSC engrafted mice” value [2] was “no significant decrease; also recorded: does not reduce; also recorded: no significant difference”. For the same substance, the “progenitor (CD34+CD38+Lin-) engraftment by FACS” value ([3]; MF318 mouse BM, compared to control treated mice, p<0.04) was “lower”, the “human CD45+ engraftment by FACS” value ([3]; MF mouse BM, compared to control treated mice, p<0.014) was “lower” and the “human CD45+ leukemic cell engraftment by confocal immunofluorescence microscopy” value ([3]; bone marrow, vs vehicle and mismatch controls) was “lower”. The splenomegaly ([3]; compared to control treated mice) was “decreased splenomegaly”, the “proliferation of human CD45+ cells in bone marrow and spleen” value ([3]; pre-LSC mouse models from 4 different MF samples, vs vehicle controls, p<0.01, t test) was “significant reduction” and the “reticulin fibrosis in bone marrow (immunohistochemistry)” value ([3]; vs vehicle and mismatch controls) was “less reticulin fibrosis”. For the same substance, the tolerability [4] was “well tolerated”, the “beta-catenin self-renewal gene expression by qRT-PCR” value [5] was “ineffective” and the “ADAR1 gene expression by qRT-PCR” value [6] was “ineffective”.
